The values below are quoted from earlier work in patent US20040002663A1, “Method and system for use in detecting a cancerous and precancerous pathology” (priority 2002, published 2004).

In data set [1] the test system is patients with orthostatic hypotension.
Data set [2] shares this test system. Particulars: for increase in one-minute standing systolic blood pressure: 10 mg at 0, 3, 6 hours.
Data set [3] deals with patients with orthostatic hypotension of various etiologies.
Data set [4] relates to patients with orthostatic hypotension. Particulars: for increase in standing one-minute systolic pressure: at one hour.
For data set [5], the system named is cardiac beta-adrenergic receptors.
Data set [6] deals with alpha-adrenergic receptors of the arteriolar and venous vasculature. The following applies: active metabolite of midodrine.
Setting [7] is: 10 mg t.i.d., printed as a pair (systolic/diastolic).

Where two headings read alike, the source gives them in different places.

In the case of `COc1ccc(OC)c(C(O)CNC(=O)CN)c1.Cl` (racemic) [midodrine, (±)−2-amino-N-(β-hydroxy-2,5-dimethoxyphenethyl)acetamide monohydrochloride], the “higher one-minute standing systolic pressure” value in data set [1] (10 mg t.i.d., one hour after dosing, 170 patients, vs placebo) is recorded as “about 20 mmHg”. Besides, the “sitting blood pressure rise” value in data set [1] (setting [7]) is given as 20/10. Further, the “supine blood pressure rise” value in data set [1] (setting [7]) is reported as 16/8. Further, the “dizziness/light headedness/unsteadiness scores and global evaluations” value in data set [1] (after week one) was “small improvements”. Further, the “increase in one-minute standing systolic blood pressure” value was “about 15 mmHg” in data set [2] (one hour after each dose) and “about 12 mmHg” in data set [2] (three hours after each dose). Also, the three-minute standing pressures result in data set [2] (10 mg, one and 3 hours after dosing) was “increased also at one, but not 3, hours after dosing”. The standing time entry in data set [2] (10 mg, one and three hours after dosing) is reported as “increases in standing time seen intermittently one hour after dosing, but not at three hours”. In addition, the “standing, sitting, and supine systolic and diastolic blood pressure” value in data set [3] is “rise”. The results for the “time the increase in standing systolic pressure was sustained in part” value in data set [4] (after 10 mg) and in data set [4] (after 20 mg) were “two” and “four”, respectively. In addition, the “increase in standing one-minute systolic pressure” value in data set [4] (single 10 mg dose) and in data set [4] (single 20 mg dose) was “about 30 mmHg” each time.

On to `COc1ccc(OC)c(C(O)CN)c1` (stereo not drawn) [Desglymidodrine], for which the “stimulation of cardiac beta-adrenergic receptors” value in data set [5] is listed as “does not stimulate”. For the same compound, the “action at alpha-adrenergic receptors” value in data set [6] is listed as “alph1-agonist”.
